Source: PMC9097471, “Development of Selective Phosphatidylinositol 5-Phosphate 4-Kinase γ Inhibitors with a Non-ATP-competitive, Allosteric Binding Mode” (Journal of Medicinal Chemistry, 2022)

Assays:
MELK = MELK (Homo sapiens, UniProt Q14680); assay: Kinase panel, radiometric 33P filter binding; conditions: read-out: % activity remaining
Text: (§3) filter binding assay using 33P-g-ATPat the MRC PPU International Centre for Kinase Profiling, University of

PDK1 = PDK1 (Homo sapiens, UniProt O15530); assay: Kinase panel, radiometric 33P filter binding; conditions: read-out: % activity remaining
Text: as §3

ASK1 = ASK1 (Homo sapiens, UniProt Q99683); assay: Kinase panel, radiometric 33P filter binding; conditions: read-out: % activity remaining
Text: as §3

CAMKKb = CAMKKb (Homo sapiens, UniProt Q96RR4); assay: Kinase panel, radiometric 33P filter binding; conditions: read-out: % activity remaining
Text: as §3

MARK3 = MARK3 (Homo sapiens, UniProt P27448); assay: Kinase panel, radiometric 33P filter binding; conditions: read-out: % activity remaining
Text: as §3

JNK2 = JNK2 (Homo sapiens, UniProt P45984); assay: Kinase panel, radiometric 33P filter binding; conditions: read-out: % activity remaining
Text: as §3

TIE2 = TIE2 (Homo sapiens, UniProt Q02763); assay: Kinase panel, radiometric 33P filter binding; conditions: read-out: % activity remaining
AMPK (hum) = AMPK (hum) (Homo sapiens, UniProt Q13131); assay: Kinase panel, radiometric 33P filter binding; conditions: read-out: % activity remaining
Text: as §3

PAK6 = PAK6 (Homo sapiens, UniProt Q9NQU5); assay: Kinase panel, radiometric 33P filter binding; conditions: read-out: % activity remaining
MLK3 = MLK3 (Homo sapiens, UniProt Q16584); assay: Kinase panel, radiometric 33P filter binding; conditions: read-out: % activity remaining
Text: as §3

IRR = IRR (Homo sapiens, UniProt P14616); assay: Kinase panel, radiometric 33P filter binding; conditions: read-out: % activity remaining
Text: as §3

CHK2 = CHK2 (Homo sapiens, UniProt O96017); assay: Kinase panel, radiometric 33P filter binding; conditions: read-out: % activity remaining
Text: as §3

ZAP70 = ZAP70 (Homo sapiens, UniProt P43403); assay: Kinase panel, radiometric 33P filter binding; conditions: read-out: % activity remaining
PHK = PHK (Homo sapiens, UniProt Q16816); assay: Kinase panel, radiometric 33P filter binding; conditions: read-out: % activity remaining
Text: as §3

EF2K = EF2K (Homo sapiens, UniProt O00418); assay: Kinase panel, radiometric 33P filter binding; conditions: read-out: % activity remaining
Text: as §3

CAMK1 = CAMK1 (Homo sapiens, UniProt Q14012); assay: Kinase panel, radiometric 33P filter binding; conditions: read-out: % activity remaining
Text: as §3

PKCz = PKCz (Homo sapiens, UniProt Q05513); assay: Kinase panel, radiometric 33P filter binding; conditions: read-out: % activity remaining
Text: as §3

PLK1 = PLK1 (Homo sapiens, UniProt P53350); assay: Kinase panel, radiometric 33P filter binding; conditions: read-out: % activity remaining
Text: as §3

CK1γ2 = CK1γ2 (Homo sapiens, UniProt P78368); assay: Kinase panel, radiometric 33P filter binding; conditions: read-out: % activity remaining
Text: as §3

YES1 = YES1 (Homo sapiens, UniProt P07947); assay: Kinase panel, radiometric 33P filter binding; conditions: read-out: % activity remaining
PKCa = PKCa (Homo sapiens, UniProt P17252); assay: Kinase panel, radiometric 33P filter binding; conditions: read-out: % activity remaining
Text: as §3

SRPK1 = SRPK1 (Homo sapiens, UniProt Q96SB4); assay: Kinase panel, radiometric 33P filter binding; conditions: read-out: % activity remaining
Text: as §3

STK33 = STK33 (Homo sapiens, UniProt Q9BYT3); assay: Kinase panel, radiometric 33P filter binding; conditions: read-out: % activity remaining
Text: as §3

HER4 = HER4 (Homo sapiens, UniProt Q15303); assay: Kinase panel, radiometric 33P filter binding; conditions: read-out: % activity remaining
Text: as §3

IRAK4 = IRAK4 (Homo sapiens, UniProt Q9NWZ3); assay: Kinase panel, radiometric 33P filter binding; conditions: read-out: % activity remaining
PRK2 = PRK2 (Homo sapiens, UniProt Q16513); assay: Kinase panel, radiometric 33P filter binding; conditions: read-out: % activity remaining
Text: as §3

CLK2 = CLK2 (Homo sapiens, UniProt P49760); assay: Kinase panel, radiometric 33P filter binding; conditions: read-out: % activity remaining
Text: as §3

MKK1 = MKK1 (Homo sapiens, UniProt Q02750); assay: Kinase panel, radiometric 33P filter binding; conditions: read-out: % activity remaining
EPH-A4 = EPH-A4 (Homo sapiens, UniProt P54764); assay: Kinase panel, radiometric 33P filter binding; conditions: read-out: % activity remaining
Text: as §3

BRSK1 = BRSK1 (Homo sapiens, UniProt Q8TDC3); assay: Kinase panel, radiometric 33P filter binding; conditions: read-out: % activity remaining
Text: as §3

PIK4Ca = PIK4Ca (Homo sapiens, UniProt P42356); assay: Lipid kinase panel, ADP-Glo; assay type: biochemical
Text: (§1) Kinase % activity remaining s.d.
(§2) Choline Kinase alpha 101.6 3.2

PIP5K2a = PIP5K2a (Homo sapiens, UniProt P48426); assay: Lipid kinase panel, ADP-Glo; assay type: biochemical
Text: as §1, §2

Choline Kinase beta = Choline Kinase beta (Homo sapiens, UniProt Q9Y259); assay: Lipid kinase panel, ADP-Glo; assay type: biochemical
Text: as §1, §2

SPHK2 = SPHK2 (Homo sapiens, UniProt Q9NRA0); assay: Lipid kinase panel, ADP-Glo; assay type: biochemical; conditions: SPHK2, 10 μM
Text: as §1, §2

DGK beta = DGK beta (Homo sapiens, UniProt Q9Y6T7); assay: Lipid kinase panel, ADP-Glo; assay type: biochemical
Text: as §1, §2

TTK = TTK (Homo sapiens, UniProt P33981); assay: Kinase panel, radiometric 33P filter binding; conditions: read-out: % activity remaining
Text: as §3

ERK1 = ERK1 (Homo sapiens, UniProt P27361); assay: Kinase panel, radiometric 33P filter binding; conditions: read-out: % activity remaining
MAPKAP-K3 = MAPKAP-K3 (Homo sapiens, UniProt Q16644); assay: Kinase panel, radiometric 33P filter binding; conditions: read-out: % activity remaining
Chain of MAPKAP-K3 (Q16644 whole entry): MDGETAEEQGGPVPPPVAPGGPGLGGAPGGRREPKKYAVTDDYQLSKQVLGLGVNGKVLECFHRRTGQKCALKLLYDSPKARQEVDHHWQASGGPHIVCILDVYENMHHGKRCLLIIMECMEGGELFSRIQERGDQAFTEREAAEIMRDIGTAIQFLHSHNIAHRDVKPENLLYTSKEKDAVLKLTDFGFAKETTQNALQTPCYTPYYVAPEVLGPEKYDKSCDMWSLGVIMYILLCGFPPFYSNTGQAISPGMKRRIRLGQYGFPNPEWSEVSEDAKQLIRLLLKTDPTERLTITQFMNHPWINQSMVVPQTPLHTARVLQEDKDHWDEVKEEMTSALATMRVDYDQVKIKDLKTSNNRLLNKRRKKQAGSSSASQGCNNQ

Chain of PHK (Q16816 whole entry): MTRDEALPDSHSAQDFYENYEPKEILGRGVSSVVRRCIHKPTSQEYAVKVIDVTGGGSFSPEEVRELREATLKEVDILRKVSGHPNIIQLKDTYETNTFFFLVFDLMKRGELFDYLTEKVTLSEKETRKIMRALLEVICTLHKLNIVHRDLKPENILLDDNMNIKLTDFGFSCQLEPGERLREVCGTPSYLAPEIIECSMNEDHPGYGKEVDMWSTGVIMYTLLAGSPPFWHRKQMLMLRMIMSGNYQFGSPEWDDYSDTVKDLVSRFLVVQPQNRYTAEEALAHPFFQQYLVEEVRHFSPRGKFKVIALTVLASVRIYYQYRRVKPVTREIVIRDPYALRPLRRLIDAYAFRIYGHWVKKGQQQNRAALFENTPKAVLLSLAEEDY
Chain of PLK1 (P53350 whole entry): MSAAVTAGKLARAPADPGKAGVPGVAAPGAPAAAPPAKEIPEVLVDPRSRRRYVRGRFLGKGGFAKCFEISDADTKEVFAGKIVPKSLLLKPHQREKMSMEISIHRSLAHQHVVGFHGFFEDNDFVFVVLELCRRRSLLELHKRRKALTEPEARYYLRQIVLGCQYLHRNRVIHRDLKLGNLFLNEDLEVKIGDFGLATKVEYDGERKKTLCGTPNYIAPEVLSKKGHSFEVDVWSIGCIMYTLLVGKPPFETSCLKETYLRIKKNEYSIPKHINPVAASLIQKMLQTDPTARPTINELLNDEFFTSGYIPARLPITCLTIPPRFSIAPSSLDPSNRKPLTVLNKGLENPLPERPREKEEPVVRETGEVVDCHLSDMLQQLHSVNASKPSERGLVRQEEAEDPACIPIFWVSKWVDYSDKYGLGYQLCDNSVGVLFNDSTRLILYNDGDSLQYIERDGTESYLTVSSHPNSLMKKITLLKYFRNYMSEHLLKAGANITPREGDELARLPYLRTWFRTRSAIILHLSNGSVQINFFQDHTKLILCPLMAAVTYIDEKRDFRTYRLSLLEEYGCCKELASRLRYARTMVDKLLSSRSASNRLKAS
Chain of CHK2 (O96017 whole entry): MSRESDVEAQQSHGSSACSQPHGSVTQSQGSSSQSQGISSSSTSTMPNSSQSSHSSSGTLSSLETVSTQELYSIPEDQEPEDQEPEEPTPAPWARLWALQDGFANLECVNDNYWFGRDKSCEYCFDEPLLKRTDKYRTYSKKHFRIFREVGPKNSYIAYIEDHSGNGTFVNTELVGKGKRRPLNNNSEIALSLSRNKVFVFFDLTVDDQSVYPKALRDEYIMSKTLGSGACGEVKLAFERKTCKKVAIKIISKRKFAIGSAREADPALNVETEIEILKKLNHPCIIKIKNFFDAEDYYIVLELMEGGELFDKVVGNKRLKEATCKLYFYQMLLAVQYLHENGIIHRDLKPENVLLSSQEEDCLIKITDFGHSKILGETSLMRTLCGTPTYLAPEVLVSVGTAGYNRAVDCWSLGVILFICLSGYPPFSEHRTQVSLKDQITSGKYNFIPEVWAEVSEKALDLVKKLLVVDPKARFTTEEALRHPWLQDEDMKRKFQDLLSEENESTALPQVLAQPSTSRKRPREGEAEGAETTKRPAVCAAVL
Chain of MKK1 (Q02750 whole entry): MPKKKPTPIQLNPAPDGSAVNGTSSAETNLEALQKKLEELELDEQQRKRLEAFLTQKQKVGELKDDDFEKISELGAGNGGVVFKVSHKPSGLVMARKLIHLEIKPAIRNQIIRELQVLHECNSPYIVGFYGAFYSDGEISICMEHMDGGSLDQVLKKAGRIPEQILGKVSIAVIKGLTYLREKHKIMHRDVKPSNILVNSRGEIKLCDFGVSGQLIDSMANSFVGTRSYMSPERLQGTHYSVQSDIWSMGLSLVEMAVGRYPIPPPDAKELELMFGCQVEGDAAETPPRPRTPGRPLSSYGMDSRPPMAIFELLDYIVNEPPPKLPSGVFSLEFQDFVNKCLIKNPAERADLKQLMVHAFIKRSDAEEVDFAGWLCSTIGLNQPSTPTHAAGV
Chain of JNK2 (P45984 whole entry): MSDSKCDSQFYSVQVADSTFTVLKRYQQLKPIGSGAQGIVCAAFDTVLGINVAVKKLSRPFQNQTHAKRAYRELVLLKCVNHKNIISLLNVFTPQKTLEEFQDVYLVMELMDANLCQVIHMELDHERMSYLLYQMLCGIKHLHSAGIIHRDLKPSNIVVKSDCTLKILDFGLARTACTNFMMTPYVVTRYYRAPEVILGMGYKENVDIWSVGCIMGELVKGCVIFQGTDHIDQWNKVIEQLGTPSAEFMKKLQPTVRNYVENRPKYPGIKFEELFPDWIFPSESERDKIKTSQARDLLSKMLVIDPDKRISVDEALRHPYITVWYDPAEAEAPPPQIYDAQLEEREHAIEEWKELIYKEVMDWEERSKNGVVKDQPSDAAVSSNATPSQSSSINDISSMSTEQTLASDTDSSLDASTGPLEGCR
Chain of TTK (P33981 whole entry): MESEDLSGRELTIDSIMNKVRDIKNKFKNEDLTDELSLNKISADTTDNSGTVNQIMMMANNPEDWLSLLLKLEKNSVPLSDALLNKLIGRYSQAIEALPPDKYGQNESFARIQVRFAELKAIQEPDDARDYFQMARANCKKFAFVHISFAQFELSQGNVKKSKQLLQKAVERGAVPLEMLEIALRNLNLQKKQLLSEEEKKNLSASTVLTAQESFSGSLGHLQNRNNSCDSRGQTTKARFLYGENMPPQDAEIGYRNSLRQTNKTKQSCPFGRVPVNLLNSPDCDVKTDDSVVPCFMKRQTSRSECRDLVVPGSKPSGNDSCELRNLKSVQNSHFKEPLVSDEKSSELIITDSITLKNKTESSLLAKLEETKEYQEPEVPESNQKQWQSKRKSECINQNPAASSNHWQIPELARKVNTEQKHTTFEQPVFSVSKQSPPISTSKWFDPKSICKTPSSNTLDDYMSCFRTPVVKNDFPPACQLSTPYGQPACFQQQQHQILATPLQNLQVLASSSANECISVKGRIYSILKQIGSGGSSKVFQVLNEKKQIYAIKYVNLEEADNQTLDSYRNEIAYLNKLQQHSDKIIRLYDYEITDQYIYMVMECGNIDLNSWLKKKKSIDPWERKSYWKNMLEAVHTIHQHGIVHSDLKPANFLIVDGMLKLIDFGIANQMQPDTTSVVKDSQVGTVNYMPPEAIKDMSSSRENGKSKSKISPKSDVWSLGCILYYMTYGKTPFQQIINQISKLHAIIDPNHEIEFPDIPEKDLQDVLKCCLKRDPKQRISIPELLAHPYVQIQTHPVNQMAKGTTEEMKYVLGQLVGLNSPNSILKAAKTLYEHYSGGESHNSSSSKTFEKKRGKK
Chain of PRK2 (Q16513 whole entry): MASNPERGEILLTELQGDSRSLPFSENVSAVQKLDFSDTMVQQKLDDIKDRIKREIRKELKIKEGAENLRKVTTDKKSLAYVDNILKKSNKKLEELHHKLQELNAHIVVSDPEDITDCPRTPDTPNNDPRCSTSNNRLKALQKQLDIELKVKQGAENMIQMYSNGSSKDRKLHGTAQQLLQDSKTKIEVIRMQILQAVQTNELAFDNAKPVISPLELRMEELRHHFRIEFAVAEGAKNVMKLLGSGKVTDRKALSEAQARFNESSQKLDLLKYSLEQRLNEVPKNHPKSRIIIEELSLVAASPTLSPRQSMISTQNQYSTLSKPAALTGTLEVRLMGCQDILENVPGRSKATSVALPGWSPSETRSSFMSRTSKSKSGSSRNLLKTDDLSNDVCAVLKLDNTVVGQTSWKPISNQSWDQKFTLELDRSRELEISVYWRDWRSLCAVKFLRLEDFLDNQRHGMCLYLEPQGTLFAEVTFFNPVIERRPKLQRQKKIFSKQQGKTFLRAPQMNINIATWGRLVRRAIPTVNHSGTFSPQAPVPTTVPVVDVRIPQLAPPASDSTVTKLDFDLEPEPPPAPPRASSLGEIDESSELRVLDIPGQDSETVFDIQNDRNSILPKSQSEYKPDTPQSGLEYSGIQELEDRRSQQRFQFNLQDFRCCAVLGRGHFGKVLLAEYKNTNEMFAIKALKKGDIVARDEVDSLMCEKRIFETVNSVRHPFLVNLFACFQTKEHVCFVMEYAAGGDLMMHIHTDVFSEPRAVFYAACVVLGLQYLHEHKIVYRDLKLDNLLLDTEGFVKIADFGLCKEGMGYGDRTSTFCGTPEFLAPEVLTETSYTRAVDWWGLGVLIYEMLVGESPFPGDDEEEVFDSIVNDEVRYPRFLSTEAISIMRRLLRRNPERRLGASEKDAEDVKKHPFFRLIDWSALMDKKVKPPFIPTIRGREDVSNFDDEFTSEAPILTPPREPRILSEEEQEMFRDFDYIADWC
Chain of CK1γ2 (P78368 whole entry): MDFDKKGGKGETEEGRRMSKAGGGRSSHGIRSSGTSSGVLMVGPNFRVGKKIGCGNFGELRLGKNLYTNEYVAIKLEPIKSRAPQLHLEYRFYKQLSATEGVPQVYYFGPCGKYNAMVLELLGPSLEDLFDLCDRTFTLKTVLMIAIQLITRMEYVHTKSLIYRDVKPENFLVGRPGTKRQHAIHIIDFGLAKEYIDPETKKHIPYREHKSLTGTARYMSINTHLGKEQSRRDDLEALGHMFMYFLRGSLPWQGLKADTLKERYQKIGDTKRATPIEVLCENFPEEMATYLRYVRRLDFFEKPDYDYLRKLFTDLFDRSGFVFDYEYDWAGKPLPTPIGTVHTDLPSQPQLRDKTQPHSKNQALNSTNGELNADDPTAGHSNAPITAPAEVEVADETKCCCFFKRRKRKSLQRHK

CC(C)c1ccccc1-c1nc(NCc2ccccn2)c2c(ccn2C)n1 [Compound 40]
remaining activity at 10 µM (MELK): 95%
remaining activity at 10 µM (PDK1): 103%
remaining activity at 10 µM (ASK1): 116%
remaining activity at 10 µM (CAMKKb): 99%
remaining activity at 10 µM (MARK3): 101%
remaining activity at 10 µM (JNK2): 110%
remaining activity at 10 µM (TIE2): 89%
remaining activity at 10 µM (AMPK (hum)): 88%
remaining activity at 10 µM (PAK6): 95%
remaining activity at 10 µM (MLK3): 90%
remaining activity at 10 µM (IRR): 99%
remaining activity at 10 µM (CHK2): 110%
remaining activity at 10 µM (ZAP70): 95%
remaining activity at 10 µM (PHK): 107%
remaining activity at 10 µM (EF2K): 98%
remaining activity at 10 µM (CAMK1): 97%
remaining activity at 10 µM (PKCz): 111%
remaining activity at 10 µM (PLK1): 97%
remaining activity at 10 µM (CK1γ2): 97%
remaining activity at 10 µM (YES1): 115%
remaining activity at 10 µM (PKCa): 118%
remaining activity at 10 µM (SRPK1): 93%
remaining activity at 10 µM (STK33): 99%
remaining activity at 10 µM (HER4): 112%
remaining activity at 10 µM (IRAK4): 114%
remaining activity at 10 µM (PRK2): 83%
remaining activity at 10 µM (CLK2): 94%
remaining activity at 10 µM (MKK1): 92%
remaining activity at 10 µM (EPH-A4): 96%
remaining activity at 10 µM (BRSK1): 115%
remaining activity at 10 µM (PIK4Ca): 81.1%
remaining activity at 10 µM (PIP5K2a): 100%
remaining activity at 10 µM (Choline Kinase beta): 97.3%
remaining activity at 10 µM (SPHK2): 83.8%
remaining activity at 10 µM (DGK beta): 102%
remaining activity at 10 µM (TTK): 94%
remaining activity at 10 µM (ERK1): 111%
remaining activity at 10 µM (MAPKAP-K3): 102%
